Measured values reported in US12600726B2, “Antagonists of the muscarinic acetylcholine receptor M4” (Vanderbilt University, priority 2017, dated 2026).

Assays:
Human M4 = molecular target: T1, Human M4 (Homo sapiens, UniProt P08173); test: mAChR M4 cell-based functional calcium flux assay (human M4/Gqi5/CHO cells); conditions: for Emin (human M4): % ACh maximum at 30 μM; for IC50: decrease of the response to an EC80 concentration of acetylcholine
T1 construct: expressed in transfected cells; host or cells: CHO-K1 (ATCC), stably expressing M4 and Gqi5
T1 sequence (P08173 1-479): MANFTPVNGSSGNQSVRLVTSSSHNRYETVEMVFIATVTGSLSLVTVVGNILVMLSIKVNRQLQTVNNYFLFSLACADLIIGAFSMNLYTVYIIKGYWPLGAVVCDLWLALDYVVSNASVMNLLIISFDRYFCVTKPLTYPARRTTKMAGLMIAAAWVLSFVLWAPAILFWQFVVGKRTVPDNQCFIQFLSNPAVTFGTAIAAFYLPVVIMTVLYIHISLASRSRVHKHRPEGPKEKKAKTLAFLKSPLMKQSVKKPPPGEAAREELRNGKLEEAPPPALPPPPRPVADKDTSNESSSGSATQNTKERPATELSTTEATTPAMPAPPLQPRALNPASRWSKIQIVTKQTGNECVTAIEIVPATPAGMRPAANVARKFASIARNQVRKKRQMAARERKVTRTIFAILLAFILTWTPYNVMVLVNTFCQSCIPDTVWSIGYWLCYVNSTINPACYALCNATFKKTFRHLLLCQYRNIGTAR
Protocol: (§1) Human, rat, or mouse M4. cDNA, along with the chimeric G protein Gqi5, were transfected into Chinese hamster ovary (CHO-K1) cells purchased from the American Type Culture Collection using Lipofectamine2000. M4/Gqi5/CHO cells were grown in Ham's F-12 medium containing 10% heat-inactivated fetal bovine serum (FBS), 20 mM HEPES, 500 μg/mL G418 sulfate, and 200 μg/mL Hygromycin B.
(§2) For high throughput measurement of agonist-evoked increases in intracellular calcium, CHO-K1 cells stably expressing muscarinic receptors were plated in growth medium lacking G418 and hygromycin at 15,000 cells/20 μL/well in Greiner 384-well black-walled, tissue culture (TC)-treated, clear-bottom plates (VWR). Cells were incubated overnight at 37° C. and 5% CO2. The next day, cells were washed using an ELX 405 (BioTek) with assay buffer; the final volume was then aspirated to 20 μL. Next, 20 μL of a 2.3 μM stock of Fluo-4/acetoxymethyl ester (Invitrogen, Carlsbad, CA), prepared as a 2.3 mM stock in DMSO and mixed in a 1:1 ratio with 10% (w/v) Pluronic F-127 and diluted in assay buffer, was added to the wells and the cell plates were incubated for 50 min at 37° C. and 5% CO2. Dye was removed by washing with the ELX 405 and the final volume was aspirated to 20 μL. Compound master plates were formatted in a 10 point concentration-response curve (CRC) format (1:3 dilutions) in 100% DMSO with a starting concentration of 10 or 1 mM using a BRAVO liquid handler (Agilent). Test compound CRCs were then transferred to daughter plates (240 nL) using the Echo acoustic plate reformatter (Labcyte, Sunnyvale, CA) and then diluted into assay buffer (40 μL) to a 2× stock using a Thermo Fisher Combi (Thermo Fisher Scientific, Waltham, MA).
(§3) Calcium flux was measured using the Functional Drug Screening System (FDSS) 6000 or 7000 (Hamamatsu Corporation, Tokyo, Japan) as an increase in the fluorescent static ratio. Compounds were applied to cells (20 μL, 2×) using the automated system of the FDSS at 2 seconds into the protocol and the data were collected at 1 Hz. At 143 s, 10 μL of an EC20 concentration of the muscarinic receptor agonist acetylcholine was added (5×), followed by the addition of 12 μL of an EC80 concentration of acetylcholine at the 268 s time point (5×). Agonist activity was analyzed as a concentration-dependent increase in calcium mobilization upon compound addition. Positive allosteric modulator activity was analyzed as a concentration-dependent increase in the EC20 acetylcholine response. Antagonist activity was analyzed as a concentration-dependent decrease in the EC80 acetylcholine response; for the purposes of the tables herein, an IC50 (inhibitory concentration 50) was calculated as a concentration-dependent decrease of the response elicited by an EC80 concentration of acetylcholine. Concentration-response curves were generated using a four-parameter logistical equation in XLFit curve fitting software (IDBS, Bridgewater, NJ) for Excel (Microsoft, Redmond, WA) or Prism (GraphPad Software, Inc., San Diego, CA) or the Dotmatics software platform (Dotmatics, Bishop's Stortford, UK).
(§4) Compounds were synthesized as described above. Activity (IC50 and Emin) was determined in the mAChR M4 cell-based functional assay as described above and the data are shown in Table 2 and Table 3. The compound number corresponds to the compound numbers used in the examples and Tables 1 and 1.1.

Rat M4 = molecular target: T2, Rat M4 (Rattus norvegicus, UniProt P08485); test: mAChR M4 cell-based functional calcium flux assay (rat M4/Gqi5/CHO cells); conditions: for Emin (rat M4): % ACh maximum at 30 μM
T2 construct: expressed in transfected cells; host or cells: CHO-K1 (ATCC), stably expressing M4 and Gqi5
T2 sequence (P08485 1-478): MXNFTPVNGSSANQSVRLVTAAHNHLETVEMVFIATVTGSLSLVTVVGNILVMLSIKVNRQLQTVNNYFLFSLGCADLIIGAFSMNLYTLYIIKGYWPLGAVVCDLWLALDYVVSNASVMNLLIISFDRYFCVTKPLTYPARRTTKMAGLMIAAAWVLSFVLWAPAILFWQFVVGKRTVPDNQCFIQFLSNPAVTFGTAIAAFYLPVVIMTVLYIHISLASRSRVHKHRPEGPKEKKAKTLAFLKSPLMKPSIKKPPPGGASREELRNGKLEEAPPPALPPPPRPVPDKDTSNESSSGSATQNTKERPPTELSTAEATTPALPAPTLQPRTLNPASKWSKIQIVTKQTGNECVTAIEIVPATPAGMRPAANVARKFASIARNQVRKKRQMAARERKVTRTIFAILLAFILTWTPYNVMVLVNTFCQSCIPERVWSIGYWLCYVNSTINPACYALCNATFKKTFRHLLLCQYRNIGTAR
Protocol: as §1, §2, §3, §4

[1] = decrease of the response to an EC80 concentration of acetylcholine

| SMILES | Emin (human M4) (Human M4) | IC50 (Human M4) | Emin (rat M4) (Rat M4) | IC50 (Rat M4; [1]) | IC50 (Rat M4; cells printed in μM, decrease of the EC80 acetylcholine response) |
| --- | --- | --- | --- | --- | --- |
| Cc1nn(C)cc1-c1ccc(NCC2CC23CCN(C[C@H]2C[C@@H]4CC[C@H]2O4)CC3)nn1 (stereo partly drawn) [Compound 3, N-((6-(((1R,2R,4S)-7-Oxabicyclo[2.2.1]heptan-2-yl)methyl)-6-azaspiro[2.5]octan-1-yl)methyl)-6-(1,3-dimethyl-1H-pyrazol-4-yl)pyridazin-3-amine] | 3.52% | 43.6 nM | 7.69% | 0.742 µM |  |
| Cc1cnn(C)c1-c1ccc(NC(=O)C2CC23CCN(CC(C)C(C)(C)C)CC3)nn1 (stereo not shown) [Compound 7, N-[6-(2,4-dimethylpyrazol-3-yl)pyridazin-3-yl]-6-(2,3,3-trimethylbutyl)-6-azaspiro[2.5]octane-2-carboxamide] | 6.29% | 2240 nM | 22.7% |  | > 10 µM |
| Cc1cnn(C)c1-c1ccc(NC(=O)C2CC23CCN(CC2CC4C=CC2C4)CC3)nn1 (stereo not shown) [Compound 8, 6-(5-bicyclo[2.2.1]hept-2-enylmethyl)-N-[6-(2,4-dimethylpyrazol-3-yl)pyridazin-3-yl]-6-azaspiro[2.5]octane-2-carboxamide] | 65.0% | 928 nM | 10.8% | 3.64 µM |  |
| Fc1ccc(Cl)c(-c2ccc(NCC3CC34CCN(CC3CCCCC3)CC4)nn2)c1 (stereo not shown) [Compound 14, 6-(2-chloro-5-fluoro-phenyl)-N-[[6-(cyclohexylmethyl)-6-azaspiro[2.5]octan-2-yl]methyl]pyridazin-3-amine] | 1.95% | 17.7 nM | 2.42% | 0.228 µM |  |
| Fc1ccc(Cl)c(-c2ccc(NCC3CC34CCN(CC3CCCOC3)CC4)nn2)c1 (stereo not shown) [Compound 15, 6-(2-chloro-5-fluoro-phenyl)-N-[[6-(tetrahydropyran-3-ylmethyl)-6-azaspiro[2.5]octan-2-yl]methyl]pyridazin-3-amine] | 3.08% | 6.51 nM | 4.24% | 0.519 µM |  |
| Fc1ccc(Cl)c(-c2ccc(NCC3CC34CCN(CC35CC6CC(CC(C6)C3)C5)CC4)nn2)c1 (stereo not shown) [Compound 16, N-[[6-(1-adamantylmethyl)-6-azaspiro[2.5]octan-2-yl]methyl]-6-(2-chloro-5-fluoro-phenyl)pyridazin-3-amine] | 2.44% | 94.1 nM | 3.13% | 0.496 µM |  |
| Fc1ccc(Cl)c(-c2ccc(NCC3CC34CCN(CC(c3ccccc3)c3ccccc3)CC4)nn2)c1 (stereo not shown) [Compound 17, 6-(2-chloro-5-fluoro-phenyl)-N-[[6-(2,2-diphenylethyl)-6-azaspiro[2.5]octan-2-yl]methyl]pyridazin-3-amine] | 3.82% | 987 nM | 12.1% | 2.98 µM |  |

Further lines, results first:

| Emin (human M4) (Human M4) | IC50 (Human M4) | Emin (rat M4) (Rat M4) | IC50 (Rat M4; [1]) | IC50 (Rat M4; cells printed in μM, decrease of the EC80 acetylcholine response) | SMILES |
| --- | --- | --- | --- | --- | --- |
| 2.74% | 74.6 nM | 2.75% | 1.15 µM |  | Fc1ccc(Cl)c(-c2ccc(NCC3CC34CCN(Cc3ncccc3C(F)(F)F)CC4)nn2)c1 (stereo not shown) [Compound 1, 6-(2-chloro-5-fluorophenyl)-N-((6-((3-(trifluoromethyl)pyridin-2-yl)methyl)-6-azaspiro[2.5]octan-1-yl)methyl)pyridazin-3-amine] |
| 2.54% | 42.4 nM | 3.35% | 0.159 µM |  | CC(C)(C)CCN1CCC2(CC1)CC2CNc1ccc(-c2ccc(F)cc2)nn1 (stereo not shown) [Compound 2, N-((6-(3,3-Dimethylbutyl)-6-azaspiro[2.5]octan-1-yl)methyl)-6-(4-fluorophenyl)pyridazin-3-amine] |
| 5.53% | 1680 nM | 18.7% | 5.72 µM |  | Cc1cnn(C)c1-c1ccc(NC(=O)C2CC23CCN(CCC(C)(C)C)CC3)nn1 (stereo not shown) [Compound 5, N-(6-(1,4-dimethyl-1H-pyrazol-5-yl)pyridazin-3-yl)-6-(3,3-dimethylbutyl)-6-azaspiro[2.5]octane-1-carboxamide] |
| 3.87% | 103 nM | 3.97% | 0.313 µM |  | Cc1nn(C)cc1-c1ccc(NCC2CC23CCN(CCC(C)(C)C)CC3)nc1 (stereo not shown) [Compound 6, N-[[6-(3,3-dimethylbutyl)-6-azaspiro[2.5]octan-2-yl]methyl]-5-(1,3-dimethylpyrazol-4-yl)pyridin-2-amine] |
| 2.15% | 39.3 nM | 2.40% | 0.22 µM |  | CC(CN1CCC2(CC1)CC2CNc1ccc(-c2cc(F)ccc2Cl)nn1)C(C)(C)C (stereo not shown) [Compound 12, 6-(2-chloro-5-fluoro-phenyl)-N-[[6-(2,3,3-trimethylbutyl)-6-azaspiro[2.5]octan-2-yl]methyl]pyridazin-3-amine] |
| 2.29% | 15.6 nM | 2.82% | 0.117 µM |  | CC(C)(C)CCN1CCC2(CC1)CC2CNc1ccc(-c2cc(F)ccc2Cl)nn1 (stereo not shown) [Compound 13, 6-(2-chloro-5-fluoro-phenyl)-N-[[6-(3,3-dimethylbutyl)-6-azaspiro[2.5]octan-2-yl]methyl]pyridazin-3-amine] |
|  |  | 5% | 0.347 µM |  | CC(C)(C)CCN1CCC2(CC1)CC2CNc1ccc(C2=CCCC2)nn1 (stereo not shown) [Compound 90, 6-(cyclopenten-1-yl)-N-[[6-(3,3-dimethylbutyl)-6-azaspiro[2.5]octan-2-yl]methyl]pyridazin-3-amine] |
|  |  | 5% | 0.409 µM |  | CC(C)(C)/C=C/c1ccc(NCC2CC23CCN(CCC(C)(C)C)CC3)nn1 (stereo not shown) [Compound 91, 6-[(E)-3,3-dimethylbut-1-enyl]-N-[[6-(3,3-dimethylbutyl)-6-azaspiro[2.5]octan-2-yl]methyl]pyridazin-3-amine] |
|  |  | 4% | 1.01 µM |  | Cc1ccc(/C=C/c2ccc(NCC3CC34CCN(CCC(C)(C)C)CC4)nn2)cc1 (stereo not shown) [Compound 92, N-[[6-(3,3-dimethylbutyl)-6-azaspiro[2.5]octan-2-yl]methyl]-6-[(E)-2-(p-tolyl)vinyl]pyridazin-3-amine] |
